Several values for one entry are separate records, joined by “and”; a condition that tells them apart may be missing. Equal entries are not always repeated.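 Dose response: 5 concentrations. Exposure: 48 h. Format: 96-well plates. Endpoint: linear interpolation; highest concentration if not reached. Here, GI50 denotes the concentration required for 50% inhibition of growth. Definition used: TGI = concentration required for complete inhibition of growth.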
Key:
Test in all cases: inhibition of tumour cell growth, NCI panel, 48 h
MDA-MB-435 = tested on: MDA-MB-435
T-47D breast = tested on: T-47D breast
DMS 114 small cell lung = tested on: DMS 114 small cell lung
DMS 273 small cell lung = tested on: DMS 273 small cell lung
HOP-18 NSCLC = tested on: HOP-18 NSCLC
M19-MEL melanoma = tested on: M19-MEL melanoma
MDA-N = tested on: MDA-N
XF 498 CNS = tested on: XF 498 CNS
RXF-631 renal = tested on: RXF-631 renal

## COc1cc2ncn(-c3cc(OCCc4ccccc4)c(C(N)=O)s3)c2cc1OC
MDA-MB-435
  GI50: 9.55 µM
  TGI: > 25 µM
T-47D breast
  GI50: > 25 µM
  TGI: > 25 µM

## CCc1ccccc1NC(=O)c1sc2nc3c(cc2c1N)C(=O)CCC3
MDA-MB-435
  GI50: 0.0598 µM
  TGI: 0.336 µM
T-47D breast
  GI50: 0.533 µM
  TGI: > 79.8 µM

## [Au+].[Au+].[Au+].[c-]1nccn1Cc1ccccc1.[c-]1nccn1Cc1ccccc1.[c-]1nccn1Cc1ccccc1
DMS 114 small cell lung
  GI50: 1.65 µM
  TGI: 3.13 µM
DMS 273 small cell lung
  GI50: 1.66 µM
  TGI: 3.23 µM
HOP-18 NSCLC
  GI50: 2.87 µM
  TGI: 8.77 µM
M19-MEL melanoma
  GI50: 2.01 µM
  TGI: 3.96 µM
MDA-MB-435
  GI50: 11.4 µM
  TGI: 34.2 µM
MDA-N
  GI50: 11.2 µM
  TGI: 26.6 µM
T-47D breast
  GI50: 7.42 µM
  TGI: 36.8 µM
XF 498 CNS
  GI50: 1.74 µM
  TGI: 3.13 µM

## O=C(Nc1ccc(CO)cc1)c1coc2ccccc2c1=O
MDA-MB-435
  GI50: > 100 µM
  TGI: > 100 µM
T-47D breast
  GI50: > 100 µM
  TGI: > 100 µM

## CC(=O)c1sc(-c2nc(C)c(C(=O)/C=C\c3ccc(/C=C\C(=O)c4sc(-c5nc(C)c(C(C)=O)s5)nc4C)cc3)s2)nc1C
DMS 114 small cell lung
  TGI: > 100 µM
DMS 273 small cell lung
  TGI: > 100 µM
HOP-18 NSCLC
  TGI: > 100 µM
M19-MEL melanoma
  TGI: > 100 µM
XF 498 CNS
  TGI: > 100 µM

## O=C(Nc1ccc(-c2ccccc2)cc1)C1CCN(S(=O)(=O)c2ccccc2Cl)CC1
MDA-MB-435
  GI50: > 100 µM
  TGI: > 100 µM
T-47D breast
  GI50: > 100 µM
  TGI: > 100 µM

## COc1ccc(OC)c2c(/C=C/c3ccc(N(C)C)cc3)ccnc12
MDA-MB-435
  TGI: > 10 µM
MDA-N
  TGI: > 10 µM
T-47D breast
  TGI: > 10 µM

## COc1ccc(-c2c[nH]c(=S)n2-c2ccc(OC)cc2)cc1
MDA-MB-435
  GI50: > 50 µM
  TGI: > 50 µM

## C[n+]1cc(C(O)c2ccc3c(c2)OCO3)c2ccccc2c1 (configuration not stated)
DMS 114 small cell lung
  TGI: 83.5 µM
DMS 273 small cell lung
  TGI: > 100 µM
M19-MEL melanoma
  TGI: > 100 µM
RXF-631 renal
  TGI: > 100 µM

## CC(C)(C=O)CC(C#N)/C(=N\NC(N)=O)C(=O)Nc1ccccc1C(N)=O (configuration not stated)
M19-MEL melanoma
  TGI: > 100 µM
XF 498 CNS
  TGI: > 100 µM

## Cc1cc(C)c(C2[C@H]3C(=O)N(c4ccc(Cc5ccc(N6C(=O)[C@@H]7ON(c8ccccc8)C(c8c(C)cc(C)cc8C)[C@@H]7C6=O)cc5)cc4)C(=O)[C@H]3ON2c2ccccc2)c(C)c1 (some centres not stated)
DMS 114 small cell lung
  TGI: > 100 µM
DMS 273 small cell lung
  TGI: > 100 µM
HOP-18 NSCLC
  TGI: > 100 µM
M19-MEL melanoma
  TGI: > 100 µM
RXF-631 renal
  TGI: > 100 µM

## Cc1ccc(S(=O)(=O)NCCNc2nccc(-c3c(-c4ccc(F)cc4)nc4sccn34)n2)cc1
T-47D breast
  GI50: 3.85 µM
  TGI: > 100 µM

## NC(N)=NCCCCCNc1noc(Cc2c[nH]c3cc(Br)ccc23)n1
MDA-MB-435
  GI50: 19.3 µM
  TGI: 62.7 µM
T-47D breast
  GI50: 6.04 µM
  TGI: 32.3 µM

## C[C@@]12CCCc3coc(c31)C(=O)c1cc3c(cc12)C(=O)C=CC3=O
DMS 114 small cell lung
  GI50: > 1 µM
  TGI: > 1 µM and 39.9 µM
DMS 273 small cell lung
  TGI: > 1 µM
HOP-18 NSCLC
  GI50: > 1 µM
  TGI: > 1 µM and 28.2 µM
M19-MEL melanoma
  GI50: > 1 µM
  TGI: > 1 µM and 28 µM
XF 498 CNS
  GI50: > 1 µM
  TGI: > 1 µM and 29.6 µM

## CCOC(=O)c1c[nH]c2oc(/C=N/N3CC(CN4CCOCC4)OC3=O)cc2c1=O (configuration not stated)
MDA-MB-435
  TGI: > 100 µM
MDA-N
  TGI: > 100 µM
T-47D breast
  TGI: > 100 µM

## COc1ccc(-c2ccc(/C=N/n3c(C)n[nH]c3=S)o2)c([N+](=O)[O-])c1
MDA-MB-435
  GI50: > 100 µM
  TGI: > 100 µM
T-47D breast
  GI50: > 100 µM
  TGI: > 100 µM

## COc1ccc(Nc2c3ccccc3nc3occ(Cl)c23)cc1
MDA-MB-435
  GI50: < 0.01 µM
  TGI: < 0.0317 µM
T-47D breast
  GI50: 0.0883 µM
  TGI: > 100 µM

## Cc1cc2c(cc1Cl)SC(=Nc1ccc(Cl)cc1)N(S(=O)(=O)c1ccccc1)S2(=O)=O
MDA-MB-435
  GI50: 5.18 µM
  TGI: 19.6 µM

## O=C1c2ccc3c4ccccc4n(Cc4ccccc4)c3c2C(=O)N1c1ccccc1
DMS 114 small cell lung
  TGI: 34.1 µM
DMS 273 small cell lung
  TGI: 24.9 µM
HOP-18 NSCLC
  TGI: 24.4 µM
M19-MEL melanoma
  TGI: 33.2 µM
RXF-631 renal
  TGI: 36.4 µM

## Oc1cn(-c2ccc(Cl)cc2)nc1-c1n[nH]c(=S)n1C1CCCCC1
T-47D breast
  GI50: 6.62 µM
  TGI: > 100 µM

## COc1ccc(-c2oc3cc(O)c(OC)c(O)c3c(=O)c2OC)cc1O
MDA-MB-435
  GI50: 0.025 µM
  TGI: 0.0674 µM
T-47D breast
  GI50: 0.819 µM
  TGI: > 100 µM

## COc1ccc2[nH]c3c4c(ccc3c2c1)C(=O)C=CC4=O
DMS 114 small cell lung
  TGI: 27 µM
DMS 273 small cell lung
  TGI: 32 µM
HOP-18 NSCLC
  TGI: 22.7 µM
M19-MEL melanoma
  TGI: 32.7 µM
MDA-MB-435
  TGI: 66.5 µM
MDA-N
  TGI: 29.7 µM
T-47D breast
  TGI: 9.75 µM

## COC(=O)CCC(=O)CC1CC(=O)C2CCCN12 (configuration not stated)
DMS 114 small cell lung
  TGI: > 100 µM
DMS 273 small cell lung
  TGI: > 100 µM
HOP-18 NSCLC
  TGI: > 100 µM
M19-MEL melanoma
  TGI: > 100 µM
XF 498 CNS
  TGI: > 100 µM

## O=C(Nc1ccc(-n2cc(-c3ccncc3)c(-c3ccc(Cl)c(O)c3)n2)cc1)Nc1ccc(Cl)c(C(F)(F)F)c1
MDA-MB-435
  GI50: 1.32 µM
  TGI: 2.91 µM
T-47D breast
  GI50: 2.39 µM
  TGI: 6.54 µM

## COCCOc1cnc2ccn([C@H](C)c3nnc4c(F)cc(-c5cnn(C)c5)cn34)c(=O)c2c1
MDA-MB-435
  GI50: > 100 µM
  TGI: > 100 µM
T-47D breast
  GI50: > 100 µM
  TGI: > 100 µM

## C1C[OH+]CCNCC[OH+]CC[OH+]CCN1.[Cl-].[Pt+4]
DMS 273 small cell lung
  GI50: > 100 µM
  TGI: > 100 µM
HOP-18 NSCLC
  GI50: > 100 µM
  TGI: > 100 µM

## Cn1cc(C2=C(c3cn(CCCCCN)c4ccccc34)C(=O)NC2=O)c2ccccc21
MDA-MB-435
  GI50: 2.4 µM
  TGI: > 25 µM
T-47D breast
  GI50: 6.23 µM
  TGI: 21.6 µM

## COc1cc2c(cc1O)C1Cc3ccc(OC)c(O)c3C(C2)N1C (configuration not stated)
MDA-MB-435
  TGI: > 100 µM
MDA-N
  TGI: > 100 µM
T-47D breast
  TGI: > 100 µM

## O=C(COc1ccc(/C=C2\CSc3ccccc3C2=O)cc1)Nc1nccs1
MDA-MB-435
  GI50: 3.31 µM
  TGI: 15.1 µM
T-47D breast
  GI50: 13.5 µM
  TGI: 42.4 µM

## COc1ccc2c(c1)[C@@]13CCCC[C@H]1[C@@H](C2)N(C)CC3=O
MDA-MB-435
  TGI: 42.7 µM
MDA-N
  TGI: 28.9 µM
T-47D breast
  TGI: 33.2 µM

## O=C(/C=C/c1cc(CN2CCOCC2)c(O)c2ncccc12)c1cc(CN2CCOCC2)c(O)c2ncccc12
MDA-MB-435
  GI50: < 0.0211 µM
  TGI: > 100 µM
T-47D breast
  GI50: 0.0574 µM
  TGI: 2.48 µM

## N#CC(=NCCO)C1=C(O)c2ccccc2C1=O
MDA-MB-435
  TGI: > 100 µM
MDA-N
  TGI: > 100 µM
T-47D breast
  TGI: > 100 µM
